In data set [1] the target is T1, PHD2_181-402 (Homo sapiens, UniProt Q9GZT9). The data set is described as follows: PHD2_181-402 inhibition assay (bioluminescent succinate detection, Succinate-Glo). The format is biochemical. As to conditions: for IC50: read-out: True IC50; for fold less effective at inhibiting PHD2_181-402 (compared to butyrate): relative to butyrate true IC50. How it is done:
PHD2_181-402 activity and inhibition assays were performed with the Succinate-Glo JmjC Demethylase/Hydroxylase Assay Kit (Promega) according to manufacturer protocol and as detailed in Alves et al. […] The enzymatic reaction was incubated at room temperature for 10 minutes, after which succinate formation was detected according to manufacturer protocol. […] Then, 20 µL of Succinate Detection Reagent II was added to the reactions and incubated for 10 min at room temperature before the luciferase-generated luminescence was recorded on a plate-reading luminometer. Succinate standard curves were used to determine the sensitivity and linear range of the bioluminescent succinate detection. […] Succinate standards were serially diluted two-fold from 15 µM to 58.6 nM and a 0 succinate blank. 10 µL of succinate standards were used for detection as described above. […] Reactions were incubated at room temperature for 10 minutes and succinate detected. […] Measured IC50s were calculated from fitting the percentage activity data to the [Inhibitor] vs. normalized response – variable slope least squares nonlinear regression in GraphPad Prism 9. True IC50s were calculated from measured IC50s with the equation derived by Wu et al.[26] describing the relationship between the measured IC50 of an inhibitor and the percentage of substrate conversion.

Data set [2] concerns the target T1, PHD2_181-402. The data set is described as follows: WaterLOGSY 1D NMR binding. The following applies: 10 mM ligand, 25 μM PHD2_181-402. The text has this: Next, we established whether butyrate binds directly to PHD2_181-402 using 1D WaterLOGSY NMR.[28] This method enables sensitive and robust detection of binding (dissociation constants as weak as μM to low mM) based on the magnetization transfer between water molecules, proteins, and ligands of interest in close proximity via dipolar proton–proton cross-relaxation (nuclear Overhauser effect, NOE). […] Binding and non-binding ligands can be distinguished in a WaterLOGSY spectrum via their opposite signs in relation to water for their corresponding peaks.
Following an established protocol, all NMR analyses were performed using PHD2_181-402 and the diamagnetic element (Zn^2+) rather than a paramagnetic element such as Fe^2+ that would result in inhibitive signal reduction or loss due to fast relaxation induced by the unpaired electron.[63]
Water-Ligand Observed via Gradient SpectroscopY (WaterLOGSY): Measurements were carried out on a 600 MHz triple-resonance Bruker cryoprobe spectrometer.[28] Selective water inversion was achieved using an iBURP shaped pulse with 15 ms length and an inversion bandwidth of 0.4 ppm. The mixing time was set to 1 s, and the water was suppressed using double Watergate. 1024 scans were acquired with an interscan delay of 2 s. The sample concentration was 25 µM of PHD2_181-402 mixed with 10 mM of the different ligands in NMR buffer (Tris 50 mM, NaCl 20 mM, ZnCl2 100 μM) at pH 6.5.

The next data set concerns HDACs. Further details: method as in PMID 18061431, PMID 30052654. The following applies: cited from earlier work.
Data set [3] deals with T84 cells. The data set is described as follows: 2-OG levels in T84 cells. The format is cell-based. The following applies: 3 h, 10 mM butyrate or 30 μM IOX2. How it is done: (§1) T84 cells were cultured in 95% air with 5% CO2 at 37°C in standard media made of DMEM:F-12 supplemented with 10% calf serum, 1% penicillin/streptomycin, and 1% GlutaMAX™ (ThermoFisher Scientific) on 9.6 cm^2 6-well plates (ThermoFisher Scientific). Real-time oxygen sensing was done using the SensorDish Reader from Applikon Biotechnology as described previously with T84 cells plated on 0.33 cm^2 transwell inserts (Corning, 0.4 μm).[12] All MCPA treatments included a 2 h pretreatment with MCPA before treatment with butyrate.
(§2) Metabolites Extractions and HPLC-DAD: Cell and colon tissue metabolites were extracted and analyzed as previously described with minor variations.[61],[62] The metabolites were detected by absorption at wavelengths of 210, 254, and 280 nm, with their absorbance spectra and retention times verified by co-injection with authentic standards. Metabolites for HPLC-ESI MS analyses were resuspended in deionized water (pH 7.2).
HPLC-ESI MS: Analyses were performed on an Agilent Technologies 1260 Infinity II LC/MSD iQ with electrospray ionization (ESI) mass detection. Negative ion mass-to-charge ratios (m/z) were scanned from 50 to 500. The metabolite extracts were chromatographed using a Sepax Carbomix column (Pb-Np5:8%, 5 μm, non-porous, 4.6 × 300 mm) (mobile phase A: water; mobile phase B: acetonitrile; column temperature, 75°C). Chromatographic separation was performed using a combination of isocratic and gradient methods, including column washing and equilibration periods at the end (0 min: 100% A, 0.12 mL/min; 60 min: 100% A, 0.12 mL/min; 70 min: 70% A, 0.5 mL/min; 145 min: 70% A, 0.5 mL/min; 150 min: 100% A, 0.5 mL/min; 164 min, 100% A, 0.5 mL/min; 165 min, 100% A, 0.12 mL/min; 170 min, 100% A, 0.12 mL/min).

In data set [4] the test system is murine colon tissue. The data set can be described thus: Rectal gavage in antibiotic-treated SCFA-depleted mice. The format is in vivo. The following applies: rectal 100 mM butyrate or 1.5 mM IOX2, 1 h, after antibiotics. How it is done: (§3) C57BL/6 mice were purchased from Jackson Laboratories. Animals were maintained and bred in standard housing conditions under 24 h/day, 7 days/week veterinary care available at the University of Colorado Anschutz Medical Campus (AMC) animal facility. All animal procedures were reviewed and approved by the Institutional Animal Care and Use Committee at AMC. 8 to 10-week-old male and female mice were pre-administered an antibiotic cocktail consisting of 1 mg/mL ampicillin, gentamicin, and neomycin, 0.5 mg/mL vancomycin, and 0.25 mg/mL metronidazole for 5 d ad libitum in addition to water control mice. Mice were then given 200 µL of tributyrin daily for three days using reusable feeding needles (18060–20, Fine Science Tools). On the third day, 4 h prior to sacrifice, select mice given tributyrin were rectally given 100 μL of 60 mM MCPA with plastic gavage tubes (FTP-20-38-50, Instech) inserted 1 cm into the rectum without surgical lubricant. Whole colon tissue at the site of the rectal gavage was collected for metabolite analysis, while colon whole tissue and epithelial scrapings upstream from the gavage site was collected for RNA and protein analysis. In the second butyrate reconstitution experiment, mice were rectally given 100 μL of 100 mM butyrate, 100 mM butyrate with 10 mM MCPA, 1.5 mM IOX2, or PBS control under anesthesia. Mice were then sacrificed 1 h after rectal supplementation and colon tissues collected for metabolite, mRNA, and protein analysis from the site of the rectal gavage.
(§4) TRIzol® reagent (ThermoFisher Scientific) was used to isolate total RNA from T84 cells. Mouse colon tissue samples were harvested into RNAlater™ (Invitrogen) and stored at 4°C for 48 h. Total RNA was isolated from the tissues using RNeasy Plus Mini Kit (Qiagen). cDNA was prepared using the iScript cDNA Synthesis Kit (Bio-Rad). Quantitative PCR analysis was performed using the Power SYBR™ Green master mix (Applied Biosystems) in a thermocycler. Fold change in expression of target mRNA relative to β-actin (ACTB) mRNA was calculated using the delta-delta Ct method. Primer sequences used are as follows: hBNIP3 – forward, 5′- […] −3′, reverse, 5′- […] −3′; hBNIP3L – forward, 5′- […] −3′, reverse, 5′- […] −3′; hGLUT1 – forward, 5′- […] −3′, reverse, 5′- […] −3′; hACTB – forward, 5′- […]-3′, reverse, 5′- […]-3′; mBnip3 – forward, 5′- […] −3′, reverse, 5′- […] −3′; mBnip3l – forward, 5′- […] −3′, reverse, 5′- […] −3′; mGlut1 – forward, 5′- […] −3′, reverse, 5′- […] −3′; and mActb – forward, 5′- […] −3′, reverse, 5′- […] −3′.
(§5) T84 cells were rinsed with PBS and collected and lysed in 200 µL of radioimmunoprecipitation assay (RIPA, 50 mM Tris-HCl pH 8.0, 1 mM EDTA, 1% Triton X-100, […], 0.5% sodium deoxycholate, 150 mM NaCl) buffer with protease inhibitors on ice. Mouse colon samples were harvested into 350 µL of RIPA buffer and flash frozen in liquid nitrogen. Samples were homogenized by sonication, and insoluble materials removed by centrifugation at 10,000 g for 5 min at 4°C. Protein quantity of the supernatant was determined using the Bradford reagent. Laemmli sample buffer was added to each sample. Samples (20 µg) were run and separated on 8% SDS-PAGE gels and transferred to polyvinylidene fluoride (PVDF) membranes. Membranes were blocked overnight at 4°C in Tris-buffered saline with 1% Tween-20 (TBS-T) and 5% milk. […]

In data set [5] the test system is T84 cells. The data set can be described thus: Butyrate metabolism and oxygen consumption in T84 cells. The format is cell-based. How it is done:
as §1, §2

The subject of data set [6] is murine colon tissue. The data set can be described thus: Tributyrin oral gavage in antibiotic-treated SCFA-depleted mice. The format is in vivo. How it is done:
as §3, §4, §5

The test system of another data set is rat hepatocytes. Further details: method as in PMID 9124539. The following applies: cited from earlier work.
On the set-up of data set [7]: method as in PMID 10321503. As to conditions: mice, oral gavage with tributyrin, 1 h after dosing; cited from earlier work.
Setting [8] is: 1 μM PHD2_181-402, 10 μM 2-OG, 10 μM Fe(II), 10 μM HIF-1α547-581 peptide, 100 μM ascorbic acid, 10-minute reaction, calculated from measured IC50 accounting for substrate conversion, error SEM.

Where two headings read alike, the source gives them in different places.

T1 sequence (Q9GZT9 181-402): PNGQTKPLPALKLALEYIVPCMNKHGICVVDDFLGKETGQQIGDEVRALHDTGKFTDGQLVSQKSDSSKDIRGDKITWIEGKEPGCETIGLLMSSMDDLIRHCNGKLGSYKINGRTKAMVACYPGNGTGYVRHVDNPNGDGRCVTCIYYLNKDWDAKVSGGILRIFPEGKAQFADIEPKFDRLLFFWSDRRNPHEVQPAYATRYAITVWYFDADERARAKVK

Turning to `CCC(CC)C(=O)O` [2-Ethylbutyrate], the 50% inhibitory concentration (IC50) (as a rule, the concentration needed to halve the response being measured) on PHD2_181-402 [1] (setting [8]) was 77 ± 6 mM.
As to `CC(O)CC(=O)O` (stereo not shown) [3-Hydroxybutyrate], at PHD2_181-402 [1] (setting [8]), the IC50 was 14 ± 1 mM.
For `CC(=O)O` [Acetate], the IC50 on PHD2_181-402 [1] (setting [8]) is 50 ± 10 mM. For the same compound, the “fold less effective at inhibiting PHD2_181-402 (compared to butyrate)” value on PHD2_181-402 [1] is listed as ~ 10 fold. For the same compound, the “binding to PHD2_181-402 (WaterLOGSY signal)” value (from here on “binding … (WaterLOGSY signal)”) at PHD2_181-402 [2] is given as “no binding”. The HDAC inhibition result in the data set on HDACs is “none”.
Turning to `COC(=O)CNC(=O)C(=O)OC` [DMOG, dimethyloxalylglycine, reference compound], on PHD2_181-402 [1] (setting [8]), the IC50 is 1.9 ± 0.5 mM. For the same compound, on PHD2_181-402 [1] (2-OG at 1, 5, 10, 40 or 100 µM), the “change of IC50 with increasing 2-OG” value is reported as “increased significantly”.
In the case of `CCCCCC(=O)O` [Hexanoate], on PHD2_181-402 [1], the IC50 came to 17 ± 3 mM and the “fold less effective at inhibiting PHD2_181-402 (compared to butyrate)” value is ~ 3 fold. For the same compound, the HDAC inhibition result in the data set with HDACs is listed as “lesser degrees of HDAC inhibition”.
As for `O=C(O)CNC(=O)c1c(O)c2ccccc2n(Cc2ccccc2)c1=O` [IOX2, reference compound], the “2-OG levels compared to control” value in the data set with T84 cells [3] is on record as “lesser extent than butyrate”. In the data set with murine colon tissue [4] (colon tissue), the “mRNA expression of HIF-1α targets Bnip3, Bnip3l, Glut1” value is recorded as “rescued”. Also, the “colon tissue 2-OG levels” value in the data set with murine colon tissue [4] is listed as “rescued”.
For the compound `C=C1CC1CC(=O)O` (stereo not shown) [MCPA, methylene cyclopropyl acetic acid], the butyrate metabolism result in the data set on T84 cells [5] (600 μM butyrate with 1 mM MCPA, 0 to 6 h) is recorded as “reduced butyrate metabolism”. Also, the butyrate-associated oxygen consumption result in the data set with T84 cells [5] (5 mM butyrate with 1 mM MCPA, 30 min) was “eliminated the increase in oxygen consumption”. For the same compound, the “colon tissue butyrate level compared to tributyrin alone” value in the data set with murine colon tissue [6] (60 mM MCPA rectal gavage 4 h in mice given tributyrin) is “significantly increased”. The “reduction of acetyl-CoA levels” value with rat hepatocytes is 70–90%.
For `CCC(=O)O` [Propionate], the IC50 at PHD2_181-402 [1] (setting [8]) was 60 ± 10 mM. In addition, the “fold less effective at inhibiting PHD2_181-402 (compared to butyrate)” value at PHD2_181-402 [1] is listed as ~ 10 fold. Besides, at PHD2_181-402 [2], the “binding … (WaterLOGSY signal)” value is reported as “no binding”. In the data set with HDACs, the HDAC inhibition entry is given as “lesser degrees of HDAC inhibition”.
With `CCCCC(=O)O` [Valerate], on PHD2_181-402 [1], the IC50 was 16 ± 3 mM and the “fold less effective at inhibiting PHD2_181-402 (compared to butyrate)” value is listed as ~ 3 fold. Moreover, the “binding … (WaterLOGSY signal)” value at PHD2_181-402 [2] is listed as “no binding”. Moreover, in the data set with HDACs, the HDAC inhibition entry is listed as “lesser degrees of HDAC inhibition”.
As for `CCCC(=O)OCC(COC(=O)CCC)OC(=O)CCC` [tributyrin], the HIF-1α protein entry with murine colon tissue [6] (epithelial scrapings and whole-colon tissue, tributyrin 200 µL, 3 d, with or without MCPA) is on record as “rescued”. For the same compound, the “colon tissue 2-OG levels” value with murine colon tissue [6] (tributyrin 200 µL, 3 d, with or without MCPA) is on record as “recovered”. In the data set on murine colon tissue [6] (tributyrin 200 µL, 3 d, with or without MCPA, versus antibiotics (glycerol control)), the “colon tissue butyrate levels” value is reported as “rescued”. In addition, in the data set with murine colon tissue [6] (whole-colon tissue and epithelial scrapings, tributyrin 200 µL oral gavage daily for 3 d, with or without 60 mM MCPA rectal 4 h), the “HIF-1α target gene Bnip3l mRNA” value is “normalized”. In addition, the plasma butyrate concentrations in [7] is above 1 mM.

The values above are taken from article PMC8253137, “Microbiota-derived butyrate is an endogenous HIF prolyl hydroxylase inhibitor” (Gut Microbes, 2021).
